Assay results published in ChEMBL document CHEMBL2434873, “Synthesis of VS-105: A novel and potent vitamin D receptor agonist with reduced hypercalcemic effects” (Bioorg Med Chem Lett, 2013).

Experiments:
HL-60 = experiment: Induction of human HL60 cell differentiation after 4 days by NBT reduction assay; assay type: functional, cell-based; conditions: HL-60, 96 h
[1] = Therapeutic index, ratio for induction of hypercalcemia over suppression of serum PTH level in 5/6 nephrectomized uremic Sprague-Dawley rat; assay type: organism-based; conditions: read-out: TI
Rattus norvegicus [2] = experiment: Toxicity in 5/6 nephrectomized uremic Sprague-Dawley rat assessed as dose require to cause hypercalcemia administered 3 times per week for 12 days measured 24 hrs post last dose; assay type: organism-based; conditions: in vivo
Rattus norvegicus [3] = experiment: Agonist activity at VDR in 5/6 nephrectomized uremic Sprague-Dawley rat assessed as dose require to suppress serum PTH level administered 3 times per week for 12 days measured 24 hrs post last dose by ELISA; assay type: functional
Vitamin D3 receptor [4] = biological target: T1, Vitamin D3 receptor (Homo sapiens, UniProt P11473); experiment: Agonist activity at VDR ligand binding domain (unknown origin) by reporter gene assay
T1 sequence (P11473 whole entry): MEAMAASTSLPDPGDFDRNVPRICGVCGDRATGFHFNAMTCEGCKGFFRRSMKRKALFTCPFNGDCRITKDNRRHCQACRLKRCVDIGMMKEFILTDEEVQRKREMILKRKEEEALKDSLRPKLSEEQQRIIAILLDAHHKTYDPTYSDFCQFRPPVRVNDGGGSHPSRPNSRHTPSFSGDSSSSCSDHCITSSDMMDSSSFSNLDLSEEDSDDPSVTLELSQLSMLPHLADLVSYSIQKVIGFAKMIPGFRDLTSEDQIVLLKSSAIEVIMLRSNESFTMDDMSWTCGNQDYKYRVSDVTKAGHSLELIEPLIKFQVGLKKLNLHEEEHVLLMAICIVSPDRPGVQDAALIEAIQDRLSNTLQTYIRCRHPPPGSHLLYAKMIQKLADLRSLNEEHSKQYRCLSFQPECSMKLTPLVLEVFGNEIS

Vitamin D3 receptor [5] = biological target: T1, Vitamin D3 receptor; experiment: Binding affinity to VDR (unknown origin)

EC50 (HL-60) [nM]	EC50 (Vitamin D3 receptor [4]) [nM]	IC50 (Vitamin D3 receptor [5]) [nM]	Compound	selectivity ratio [1]	Activity (Rattus norvegicus [2]) [µg/kg]	Activity (Rattus norvegicus [3]) [µg/kg]
12.5			C[C@H](/C=C/[C@H](C)C(C)(C)O)[C@H]1CC[C@H]2/C(=C/C=C3C[C@@H](O)C[C@H](O)C3)CCC[C@]12C [PARICALCITOL]	4	> 0.08	0.02
11.8	< 0.1	38	C=C1[C@H](O)CC(=C/C=C2\CCC[C@]3(C)[C@@H]([C@@H](C)OC[C@H](C)C(C)(C)O)CC[C@@H]23)C[C@H]1O	> 50	> 0.6	0.004
